The values below are quoted from earlier work in US12263152B2, “Method of preventing and treating chemotherapy-induced alopecia” (JJR&D, LLC, priority 2022, dated 2025).

Read-outs that look alike come from different tables or passages of the source.

The subject of data set [1] is CIA. As to conditions: studies on humans.
In data set [2] the test system is CIA. The settings on record: neonatal rat model.
Data set [3] deals with most commonly used alopecic chemotherapies. The settings on record: topical pretreatment, rats.
In data set [4] the test system is alopecia.
Data set [5] has as its system cyclophosphamide-induced alopecia. As to conditions: animal studies.

With `Cl[TeH]1(Cl)(Cl)OCCO1` [AS101], the “Protective role against CIA” value in data set [1] and in data set [2] was “protective role” throughout.
As for `C=C1/C(=C\C=C2/CCC[C@]3(C)[C@@H]([C@H](C)CCCC(C)(C)O)CC[C@@H]23)C[C@@H](O)C[C@@H]1O` [Calcitriol, 1,25-(OH)2D3], in data set [3], the “Protection from the most commonly used alopecic chemotherapies” value is reported as “protected”. In data set [4] (Week 7, of 23 female patients, topical 5-80 μg/mL twice daily), the “Patients with alopecia of <50% from baseline” value was 8 patients. Besides, the “Patients with <50% alopecia maintained” value in data set [4] (Week 15, of 23 female patients, topical 5-80 μg/mL twice daily) is 2 patients. In addition, the Maximum tolerated dose result in data set [4] (topical drug product, dose escalation up to 80 μg/mL twice daily) is given as “not reached”.
Turning to epidermal growth factor, the “Protection from cyclophosphamide (CTX)-induced alopecia” value in data set [5] is given as “lack of protection”.
For the compound “recombinant interleukin 1 β: recombinant interleukin 1 β”, the “Protection from cyclophosphamide (CTX)-induced alopecia” value in data set [5] was “lack of protection”.
